Experimental findings from US20090110671A1, “AGENT FOR ENHANCHING THE PRODUCTION OF COLLAGEN AND IT'S USE” (priority 2005, published 2009) are described below.

The test system of one assay is NHDF cells. In words: Experiment 4: collagen production in NHDF cells, saccharides combined with hyaluronic acid and/or chondroitin sulfate. Type of assay: cell-based, human. The source says: Influence of α,α-trehalose or a saccharide derivative thereof, or a combination use of any of these saccharides and hyaluronic acid and/or chondroitin sulfate on the collagen production by L-ascorbic acids was examined as follows. AA-2G and any one of hydrous crystalline α,α-trehalose, a reagent grade specimen commercialized by Hayashibara Biochemical Laboratories Inc., Okayama, Japan; α-maltosyl α,α-trehalose with a purity of at least 98% commercialized by Hayashibara Biochemical Laboratories Inc., Okayama, Japan; and “HALLODEX”, a product name of a syrup of saccharide derivatives of α,α-trehalose were dissolved in D-MEM medium to give final concentrations of 50 μM of AA-2G and 15.0 mg/ml of saccharides. Further, as another test solutions, those, which had been prepared similarly as in the above, were admixed with any one of hyaluronic acid, chondroitin sulfate, and a combination thereof to give respective concentrations of 1 mg/ml, 1 mg/ml, and 0.5 mg/ml of hyaluronic acid and chondroitin sulfate each. The medium supplemented with a syrup containing about 59%, d.s.b., of saccharide derivatives of α,α-trehalose was prepared to give a concentration of 15.0 mg/ml of the saccharide derivatives of α,α-trehalose contained in the syrup. The culture of NHDF cells and the quantification of collagen-production level thereof were carried out similarly as in Experiment 1. The results are in Table 4 where the values are expressed with relative values in terms of the collagen-production level of NHDF cells, being regarded as 100, when cultured in D-MEM medium containing AA-2G.

Assay [1] relates to NHDF cells (normal human dermal fibroblast cell). The assay can be described thus: Experiment 1: collagen production in NHDF cells (Sircol kit), α,α-trehalose with AA-2G. Type of assay: cell-based. As to conditions: relative to AA-2G = 100. How it is done: Using “fibrocell NHDF”, a normal human dermal fibroblast cell, commercialized by Kurashiki Spinning Co., Ltd., Okayama, Japan (abbreviated as “NHDF cells”, hereinafter), experiment for studying the influence of α,α-trehalose on the collagen production by L-ascorbic acids was conducted based on the method described in Bioscience, Biotechnology, and Biochemistry, Vol. 68, No. 4, pp. 767-773, 2004. The method is outlined below: Test solutions were prepared by dissolving L-ascorbic acid 2-glucoside, a reagent grade specimen commercialized by Hayashibara Biochemical Laboratories Inc., Okayama, Japan (may be abbreviated as “AA-2G”, hereinafter), and α,α-trehalose, a reagent grade specimen commercialized by Hayashibara Biochemical Laboratories Inc., Okayama, Japan, in Dulbecco […] essential medium containing 10% (v/v) fetal calf serum and an antibiotic (abbreviated as “D-MEM”, hereinafter) to give a final concentration of 50 μM/ml of AA-2G and a final concentration of 7.5, 15 or 30 mg/ml of α,α-trehalose. NHDF cells, which had been successively cultured in D-MEM medium, were collected, re-suspended in a fresh preparation of D-MEM medium, inoculated to 96-well microplates at a cell concentration of 2.5×10^4 cells/200 μl/well, and cultured for 24 hours. Thereafter, the supernatants of the cultures were removed by sucking, and further cultured for five days after addition of any of the test solutions in a volume of 200 μl/well. As controls, the cells, which had been cultured for 24 hours, were further cultured for five days after addition of 200 μl/well of D-MEM medium, D-MEM medium supplemented with α,α-trehalose at a concentration of 30 mg/ml, or D-MEM medium supplemented with AA-2G at a concentration of 50 μM/ml. After completion of culturing, the supernatants of the cultures were removed by sucking, admixed with 50 μl/well of 1 M acetic acid solution containing 1 mg/ml of pepsin, and shaken for four hours to solubilize collagen adhered to the cell surfaces, followed by quantifying the content of collagen accumulated in the cells using “Sircol Collagen Quantification Kit”, commercialized by Biocolor Ltd. These control and test solutions were respectively experimented with three wells, followed by calculating a mean value for collagen-production levels in the wells. All the cultures of the NHDF cells were conducted in a 5% (v/v) CO2 incubator. The results are in Table 1 where the values are expressed with relative values in terms of the collagen-production level of NHDF cells, which had been cultured in D-MEM medium containing AA-2G, being regarded as 100.

In the case of `OC[C@H]1O[C@H](O[C@H]2O[C@H](CO)[C@@H](O)[C@H](O)[C@H]2O)[C@H](O)[C@@H](O)[C@@H]1O` [α,α-trehalose], the Collagen-production level with NHDF cells (saccharide 15.0 mg/ml + 50 μM AA-2G) worked out at 203; in the assay with NHDF cells (saccharide 15.0 mg/ml + 50 μM AA-2G + chondroitin sulfate 1 mg/ml), 256; in the assay on NHDF cells (saccharide 15.0 mg/ml + 50 μM AA-2G + hyaluronate and chondroitin sulfate 0.5 mg/ml each), 344; in the assay with NHDF cells (saccharide 15.0 mg/ml + 50 μM AA-2G + sodium hyaluronate 1 mg/ml), 276; with NHDF cells (saccharide 15.0 mg/ml alone, no AA-2G, no hyaluronate, no chondroitin sulfate), 42; in assay [1] (α,α-trehalose 7.5 mg/ml + 50 μM AA-2G), 150. Further, the Collagen-production level in assay [1] (α,α-trehalose 15.0 mg/ml + 50 μM AA-2G) came to 217; in assay [1] (α,α-trehalose 30.0 mg/ml + 50 μM AA-2G) it was 264; in assay [1] (α,α-trehalose 30.0 mg/ml in D-MEM, no AA-2G) it was 41.
